Test systems include TK-10; UO-31; SK-MEL-5; ACHN; T47D; A549; NCI-H522; MOLT-4; NCI-H460; OVCAR-4; SF-268; K562; SK-MEL-28; KM12; RPMI-8226; SNB-19; HCC 2998; UACC-257; SK-OV-3; UACC-62.
Holding throughout (assay): NCI-60 cell line screen, 48 h

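Results reflect a 48-hour exposure of cells in 96-well plates to compound at five concentrations. GI50 = concentration required for 50% inhibition of growth.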 Activity calls are given as the source filed them. Rule as the data show it: active = GI50 up to about 1.1 µM and inactive = higher.

`CN(C)S(=O)(=O)n1ccnc1`: the GI50 in the test with TK-10, in the test on UO-31, with SK-MEL-5, in the test on ACHN, with T47D and in the test on A549 was > 100 µM (inactive) in each case. Further, the GI50 in the test on NCI-H522, in the test with MOLT-4, with NCI-H460, in the test with OVCAR-4, in the test with SF-268 and with K562 was > 100 µM (inactive) each time. For the same compound, the GI50 in the test with SK-MEL-28, in the test on KM12, with RPMI-8226, in the test with SNB-19, in the test on HCC 2998 and with UACC-257 was > 100 µM (inactive) in each case. The GI50 in the test with SK-OV-3 was > 100 µM (inactive).

As to `N#CC(C#N)=Cc1ccc(C=C2SC3=C(SCCS3)S2)s1`, the GI50 in the test on TK-10 was 2.07 µM (inactive); with UO-31, > 100 µM (inactive); in the test with SK-MEL-5 it was 3.33 µM (inactive); in the test on ACHN, > 100 µM (inactive); in the test with T47D, > 100 µM (inactive); in the test with A549, 55.5 µM (inactive). Moreover, the GI50 was 2.99 µM (inactive) in the test with NCI-H522; 2.59 µM (inactive) with MOLT-4; 7.59 µM (inactive) in the test with NCI-H460; 9.68 µM (inactive) in the test on OVCAR-4; 40.4 µM (inactive) with SF-268; > 100 µM (inactive) in the test on SK-MEL-28. In addition, the GI50 in the test with KM12 was 2.25 µM (inactive); with RPMI-8226, 0.881 µM (active); with SNB-19, 44.1 µM (inactive); in the test on HCC 2998, 15.8 µM (inactive); with UACC-62 it was 2.89 µM (inactive); in the test with UACC-257, 9.38 µM (inactive). For the same compound, the GI50 with SK-OV-3 is 74.8 µM (inactive).

Take `O=[N+]([O-])C(=C(Nc1ccccc1)Nc1ccccc1)C(Cl)=C(Cl)Cl`: the GI50 with TK-10 is 22.6 µM (inactive); in the test on UO-31, 24.5 µM (inactive); in the test with SK-MEL-5, 13.8 µM (inactive); in the test with ACHN it was 15.9 µM (inactive); in the test with T47D, 19.3 µM (inactive); in the test on A549, 17.7 µM (inactive). Moreover, the GI50 is 21.4 µM (inactive) with NCI-H522; 16.1 µM (inactive) in the test on NCI-H460; 12.2 µM (inactive) in the test with OVCAR-4; 18.7 µM (inactive) with SF-268; 10.3 µM (inactive) with K562; 18.7 µM (inactive) with SK-MEL-28. In addition, the GI50 with KM12 was 24.9 µM (inactive); in the test with RPMI-8226 it was 32.8 µM (inactive); in the test on SNB-19, 17.9 µM (inactive); with HCC 2998 it was 19.5 µM (inactive); with UACC-62, 15.6 µM (inactive); in the test on UACC-257, 14.9 µM (inactive). In the test with SK-OV-3, the GI50 is 29 µM (inactive).

Consider `O=[N+]([O-])c1ccc2c(c1)c1nn2CCCCOc2nn(c3ccc([N+](=O)[O-])cc23)CCCCO1`, for which the GI50 with UO-31, in the test with ACHN, with T47D, in the test on NCI-H522, with MOLT-4 and in the test with NCI-H460 was > 100 µM (inactive) throughout. For the same compound, the GI50 in the test on OVCAR-4, in the test on SF-268, with K562, in the test with SK-MEL-28, with RPMI-8226 and in the test on SNB-19 was > 100 µM (inactive) each time. Moreover, the GI50 with HCC 2998, in the test on UACC-257 and in the test with SK-OV-3 was > 100 µM (inactive) in each case.

`C/C(=N/NC(=S)NCCc1ccccn1)c1cnccn1`: the GI50 with TK-10 is 17 µM (inactive); in the test with UO-31, 16.6 µM (inactive); in the test with SK-MEL-5, 27 µM (inactive); in the test with ACHN, 20.7 µM (inactive); in the test with T47D, 6.05 µM (inactive); with A549 it was 28.8 µM (inactive). In addition, the GI50 in the test on NCI-H522 was 3.6 µM (inactive); in the test on MOLT-4, 3.26 µM (inactive); in the test on NCI-H460, 52.5 µM (inactive); in the test on OVCAR-4, 24.4 µM (inactive); with SF-268, 38.5 µM (inactive); with SK-MEL-28 it was 31 µM (inactive). The GI50 in the test on KM12 is 36.9 µM (inactive); with RPMI-8226, 13.3 µM (inactive); with SNB-19 it was 54.7 µM (inactive); in the test with HCC 2998 it was 40.4 µM (inactive); with UACC-62, 18.3 µM (inactive); with UACC-257, 35.6 µM (inactive). The GI50 with SK-OV-3 is 20.1 µM (inactive).

For `CC(=O)OC12c3ccccc3-c3ccccc3C1C(C(=O)O)C2C(=O)O` (stereo unspecified), the GI50 in the test with TK-10, with UO-31, in the test on SK-MEL-5, in the test on ACHN, with T47D and in the test on NCI-H522 was > 10 µM (inactive) in each case. For the same compound, the GI50 in the test with MOLT-4, with NCI-H460, in the test with OVCAR-4, in the test on SF-268, with K562 and with SK-MEL-28 was > 10 µM (inactive) throughout. Also, the GI50 in the test on KM12, in the test on RPMI-8226, in the test on SNB-19, in the test on HCC 2998, in the test with UACC-257 and in the test with SK-OV-3 was > 10 µM (inactive) in each case.

For the compound `c1ccc([P+](c2ccccc2)(c2ccccc2)c2ccc([P+](c3ccccc3)(c3ccccc3)c3ccccc3)c3ccccc23)cc1`, the GI50 in the test on TK-10 was > 100 µM (inactive); with UO-31, > 100 µM (inactive); with SK-MEL-5, 62.1 µM (inactive); with ACHN it was > 100 µM (inactive); with T47D, 54.8 µM (inactive); in the test with A549, 70.1 µM (inactive). The GI50 in the test with NCI-H522 is 44.4 µM (inactive); with MOLT-4, > 100 µM (inactive); in the test with NCI-H460, 61.4 µM (inactive); with SF-268, > 100 µM (inactive); in the test on K562 it was 29.6 µM (inactive); in the test on SK-MEL-28, > 100 µM (inactive). The GI50 is 34.4 µM (inactive) with KM12; 57.1 µM (inactive) in the test on RPMI-8226; 65 µM (inactive) with SNB-19; 49.2 µM (inactive) in the test with HCC 2998; 86.5 µM (inactive) in the test on UACC-62; 32 µM (inactive) in the test on UACC-257. In addition, the GI50 with SK-OV-3 was > 100 µM (inactive).

With `Oc1cc(-c2ccc3ccccc3c2)nc2ncc(Cl)cc12`, the GI50 in the test on TK-10 is 12.7 µM (inactive); with UO-31 it was 14.4 µM (inactive); with ACHN, 4.9 µM (inactive); with T47D, 18.8 µM (inactive); with A549, 6.92 µM (inactive); with NCI-H522 it was 4.32 µM (inactive). The GI50 in the test with MOLT-4 was 3.27 µM (inactive); in the test on OVCAR-4, 6.43 µM (inactive); in the test on SF-268, 4.74 µM (inactive); in the test on K562, 3.23 µM (inactive); in the test with SK-MEL-28, 40.9 µM (inactive); in the test with KM12 it was 3.79 µM (inactive). For the same compound, the GI50 in the test with RPMI-8226 was 2.99 µM (inactive); in the test with SNB-19, 9.31 µM (inactive); in the test with HCC 2998, 10.2 µM (inactive); in the test on UACC-62 it was 3.66 µM (inactive); with UACC-257, 9.06 µM (inactive); with SK-OV-3, 4.73 µM (inactive).
